In brackets after ≈: the same amount, converted by molar mass.
Assays:
[1] = molecular target: T1, Insulin-like growth factor 1 receptor (Homo sapiens, UniProt P08069); test: Inhibition of IGF1R (unknown origin) at 1 uM relative to control
[2] = molecular target: Calcium/calmodulin-dependent protein kinase kinase 2 (Homo sapiens) (UniProt Q96RR4); test: Inhibition of CAMKKbeta (unknown origin) at 1 uM relative to control
[3] = molecular target: T1, Insulin-like growth factor 1 receptor; test: Inhibition of IGF1R (unknown origin)
[4] = tested on: Mus musculus; test: Inhibition of EGFR exon 19 deletion activating mutant phosphorylation in human PC9 cells xenografted in SCID mouse at 10 mg/kg, po measured 30 hrs post dose; format: functional; details: PC-9, 30 h
[5] = Antitumor activity against human PC9 cells harboring EGFR exon 19 deletion activating mutant xenografted in SCID mouse assessed as tumor growth inhibition at 10 mg/kg/day, po qd for 7 days relative to control; format: functional, PC-9; details: Homo sapiens, PC-9, 168 h, read-out: TGI
[6] = tested on: Mus musculus; test: Inhibition of EGFR exon 19 deletion activating mutant phosphorylation in human PC9 cells xenografted in SCID mouse at 10 mg/kg, po measured 16 hrs post dose; format: functional; details: PC-9, 16 h
[7] = tested on: Mus musculus; test: Inhibition of EGFR exon 19 deletion activating mutant phosphorylation in human PC9 cells xenografted in SCID mouse at 10 mg/kg, po measured 6 hrs post dose; format: functional; details: PC-9, 6 h
[8] = molecular target: T2, Insulin receptor (Homo sapiens, UniProt P06213); test: Inhibition of INSR (unknown origin)
T2 sequence (P06213 28-758 limits assumed): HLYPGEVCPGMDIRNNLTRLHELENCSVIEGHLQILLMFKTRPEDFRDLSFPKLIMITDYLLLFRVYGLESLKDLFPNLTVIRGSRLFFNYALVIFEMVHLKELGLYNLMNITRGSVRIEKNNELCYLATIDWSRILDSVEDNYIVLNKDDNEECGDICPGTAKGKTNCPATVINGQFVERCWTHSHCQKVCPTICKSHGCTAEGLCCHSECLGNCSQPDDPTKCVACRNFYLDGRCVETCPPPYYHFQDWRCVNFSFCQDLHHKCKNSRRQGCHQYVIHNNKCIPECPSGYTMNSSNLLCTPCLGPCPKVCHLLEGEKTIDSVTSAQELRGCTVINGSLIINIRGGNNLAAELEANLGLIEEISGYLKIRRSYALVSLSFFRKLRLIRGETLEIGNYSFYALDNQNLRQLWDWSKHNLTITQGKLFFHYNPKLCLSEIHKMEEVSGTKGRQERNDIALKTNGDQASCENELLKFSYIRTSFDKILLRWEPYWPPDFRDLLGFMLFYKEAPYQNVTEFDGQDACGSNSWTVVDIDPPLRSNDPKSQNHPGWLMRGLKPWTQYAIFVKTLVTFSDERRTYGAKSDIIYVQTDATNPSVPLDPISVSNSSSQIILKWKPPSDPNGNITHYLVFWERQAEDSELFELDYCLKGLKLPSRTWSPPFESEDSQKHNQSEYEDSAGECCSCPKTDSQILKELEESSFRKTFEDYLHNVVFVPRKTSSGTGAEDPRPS
T2 sequence (P06213 763-1382 limits assumed): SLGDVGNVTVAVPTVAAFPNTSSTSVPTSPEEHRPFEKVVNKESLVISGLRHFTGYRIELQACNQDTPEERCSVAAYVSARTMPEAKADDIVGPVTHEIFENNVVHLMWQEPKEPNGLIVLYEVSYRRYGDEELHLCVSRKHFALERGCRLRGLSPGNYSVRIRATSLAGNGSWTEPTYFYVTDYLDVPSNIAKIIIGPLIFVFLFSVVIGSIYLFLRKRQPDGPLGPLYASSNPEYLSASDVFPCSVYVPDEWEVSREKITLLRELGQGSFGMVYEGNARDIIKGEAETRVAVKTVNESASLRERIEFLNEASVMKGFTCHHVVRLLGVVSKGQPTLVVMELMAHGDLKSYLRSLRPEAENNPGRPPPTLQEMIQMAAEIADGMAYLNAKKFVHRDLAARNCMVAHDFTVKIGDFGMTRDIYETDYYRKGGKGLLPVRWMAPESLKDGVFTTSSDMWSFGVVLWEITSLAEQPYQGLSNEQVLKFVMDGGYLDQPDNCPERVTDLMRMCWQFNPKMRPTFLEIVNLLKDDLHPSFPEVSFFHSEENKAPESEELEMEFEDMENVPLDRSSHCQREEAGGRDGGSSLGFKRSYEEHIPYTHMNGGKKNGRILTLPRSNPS

[9] = tested on: Mus musculus; test: Inhibition of EGFR L858R/[…] double mutant phosphorylation in human NCI-H1975 cells xenografted in SCID mouse at 10 mg/kg, po measured 1 hr post dose; format: functional; details: NCI-H1975, 1 h
[10] = tested on: Mus musculus; test: Inhibition of EGFR L858R/[…] double mutant phosphorylation in human NCI-H1975 cells xenografted in SCID mouse at 10 mg/kg, po measured 30 hrs post dose; format: functional; details: NCI-H1975, 30 h
[11] = tested on: Mus musculus; test: Inhibition of EGFR exon 19 deletion activating mutant phosphorylation in human PC9 cells xenografted in SCID mouse at 10 mg/kg, po measured 24 hrs post dose; format: functional; details: PC-9, 24 h
[12] = tested on: Mus musculus; test: Inhibition of EGFR L858R/[…] double mutant phosphorylation in human NCI-H1975 cells xenografted in SCID mouse at 10 mg/kg, po measured 16 hrs post dose; format: functional; details: NCI-H1975, 16 h
[13] = tested on: NCI-H1975; test: Antitumor activity against human NCI-H1975 cells harboring EGFR L858R/[…] double mutant xenografted in SCID mouse assessed as tumor growth inhibition at 10 mg/kg/day, po qd for 7 days relative to control; format: functional; details: Mus musculus, NCI-H1975, 168 h, read-out: TGI
[14] = tested on: Mus musculus; test: Inhibition of EGFR exon 19 deletion activating mutant phosphorylation in human PC9 cells xenografted in SCID mouse at 10 mg/kg, po measured 1 hr post dose; format: functional; details: PC-9, 1 h
[15] = tested on: A-431; test: Antitumor activity against human A431 cells xenografted in SCID mouse assessed as tumor growth inhibition at 10 mg/kg/day, po qd for 7 days relative to control; format: functional; details: Mus musculus, A-431, 168 h, read-out: TGI
[16] = molecular target: T2, Insulin receptor; test: Inhibition of INSR (unknown origin) at 1 uM relative to control
[17] = tested on: Mus musculus; test: Inhibition of EGFR L858R/[…] double mutant phosphorylation in human NCI-H1975 cells xenografted in SCID mouse at 10 mg/kg, po measured 6 hrs post dose; format: functional; details: NCI-H1975, 6 h
[18] = tested on: Mus musculus; test: Inhibition of EGFR L858R/[…] double mutant phosphorylation in human NCI-H1975 cells xenografted in SCID mouse at 10 mg/kg, po measured 24 hrs post dose; format: functional; details: NCI-H1975, 24 h
[19] = Intrinsic clearance in mouse hepatocytes measured per 10^6 cells; format: ADME, cell-based, Hepatocyte; details: read-out: CLH
[20] = molecular target: Epidermal growth factor receptor (Homo sapiens, UniProt P00533); test: Inhibition of wild type EGFR phosphorylation in human LoVo cells after 2 hrs by fluorescence assay; format: cell-based
[21] = molecular target: Epidermal growth factor receptor (Homo sapiens, UniProt P00533, L858R/T790M); test: Inhibition of EGFR L858R/T790M double mutant phosphorylation in human NCI-H1975 cells after 2 hrs by fluorescence assay; format: cell-based
[22] = molecular target: Epidermal growth factor receptor (Homo sapiens, UniProt P00533, EX19DEL); test: Inhibition of EGFR exon 19 deletion activating mutant phosphorylation in human PC9 cells after 2 hrs by fluorescence assay; format: cell-based, PC-9
[23] = Thermodynamic solubility of the compound at pH 7.4; format: physicochemical; details: buffer, read-out: Therm_solubility
[24] = Lipophilicity, log D of the compound at pH 7.4; format: physicochemical; details: buffer
[25] = Cmax in mouse at 10 mg/kg, po; format: ADME, organism-based; set-up: dose 10 mg/kg, route oral; details: in vivo
[26] = tested on: Rattus norvegicus; test: Clearance in iv dosed Han Wistar rat; format: ADME, organism-based; details: in vivo
[27] = Intrinsic clearance in human hepatocytes measured per 10^6 cells; format: ADME, cell-based, Hepatocyte; details: read-out: CLH
[28] = Oral bioavailability in Han Wistar rat at 5 mg/kg; format: ADME, organism-based; details: in vivo
[29] = molecular target: Voltage-gated inwardly rectifying potassium channel KCNH2 (Homo sapiens, UniProt Q12809); test: Inhibition of human ERG
Voltage-gated inwardly rectifying potassium channel KCNH2, sequence (Q12809 whole entry): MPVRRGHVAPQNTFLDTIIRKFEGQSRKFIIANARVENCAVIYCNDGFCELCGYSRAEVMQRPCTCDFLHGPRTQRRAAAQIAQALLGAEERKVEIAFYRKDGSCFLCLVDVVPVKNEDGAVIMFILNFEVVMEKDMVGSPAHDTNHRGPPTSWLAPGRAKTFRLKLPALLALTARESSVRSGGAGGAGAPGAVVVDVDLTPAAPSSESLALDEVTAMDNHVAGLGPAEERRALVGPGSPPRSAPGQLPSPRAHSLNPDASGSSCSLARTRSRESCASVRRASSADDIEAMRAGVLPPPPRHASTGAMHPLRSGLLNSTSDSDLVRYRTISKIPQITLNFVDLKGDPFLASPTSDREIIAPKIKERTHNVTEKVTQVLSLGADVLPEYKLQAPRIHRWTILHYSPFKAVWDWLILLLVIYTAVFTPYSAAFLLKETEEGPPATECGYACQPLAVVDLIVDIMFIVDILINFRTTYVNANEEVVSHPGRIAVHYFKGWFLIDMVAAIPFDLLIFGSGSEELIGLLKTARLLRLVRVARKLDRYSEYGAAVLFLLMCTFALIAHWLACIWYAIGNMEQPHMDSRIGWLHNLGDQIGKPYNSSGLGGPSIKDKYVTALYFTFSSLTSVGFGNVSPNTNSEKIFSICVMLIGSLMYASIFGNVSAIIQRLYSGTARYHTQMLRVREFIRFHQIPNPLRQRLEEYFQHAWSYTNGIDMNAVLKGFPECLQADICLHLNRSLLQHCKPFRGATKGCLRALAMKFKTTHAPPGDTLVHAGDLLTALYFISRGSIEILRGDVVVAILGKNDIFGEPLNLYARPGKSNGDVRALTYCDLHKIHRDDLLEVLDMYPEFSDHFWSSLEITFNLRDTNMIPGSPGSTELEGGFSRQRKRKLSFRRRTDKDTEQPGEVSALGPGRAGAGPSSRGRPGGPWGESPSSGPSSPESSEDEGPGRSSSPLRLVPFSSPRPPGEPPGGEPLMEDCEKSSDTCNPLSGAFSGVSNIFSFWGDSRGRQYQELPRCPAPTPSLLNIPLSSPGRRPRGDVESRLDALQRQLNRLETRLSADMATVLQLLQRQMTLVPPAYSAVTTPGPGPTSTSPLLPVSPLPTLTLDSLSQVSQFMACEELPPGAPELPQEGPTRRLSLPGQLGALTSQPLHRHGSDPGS

[30] = Unbound fraction in human plasma; format: ADME, cell-free
[31] = Cytotoxicity against human Calu3 cells assessed as growth inhibition after 72 hrs by SYTOX green nucleic acid staining-based fluorescence assay; format: functional, Calu-3; details: Homo sapiens, Calu-3, 72 h
[32] = Fraction unbound in Han Wistar rat plasma; format: ADME, cell-free
[33] = tested on: NCI-H1975; test: Cytotoxicity against human NCI-H1975 cells harboring EGFR L858R/[…] double mutant assessed as growth inhibition after 72 hrs by SYTOX green nucleic acid staining-based fluorescence assay; format: functional; details: Homo sapiens, NCI-H1975, 72 h
[34] = Cytotoxicity against human PC9 cells harboring EGFR exon 19 deletion activating mutant assessed as growth inhibition after 72 hrs by SYTOX green nucleic acid staining-based fluorescence assay; format: functional, PC-9; details: Homo sapiens, PC-9, 72 h
[35] = molecular target: Serine/threonine-protein kinase Chk2 (Homo sapiens) (UniProt O96017); test: Inhibition of CHK2 (unknown origin) at 1 uM relative to control
Serine/threonine-protein kinase Chk2 (Homo sapiens), sequence (O96017 whole entry): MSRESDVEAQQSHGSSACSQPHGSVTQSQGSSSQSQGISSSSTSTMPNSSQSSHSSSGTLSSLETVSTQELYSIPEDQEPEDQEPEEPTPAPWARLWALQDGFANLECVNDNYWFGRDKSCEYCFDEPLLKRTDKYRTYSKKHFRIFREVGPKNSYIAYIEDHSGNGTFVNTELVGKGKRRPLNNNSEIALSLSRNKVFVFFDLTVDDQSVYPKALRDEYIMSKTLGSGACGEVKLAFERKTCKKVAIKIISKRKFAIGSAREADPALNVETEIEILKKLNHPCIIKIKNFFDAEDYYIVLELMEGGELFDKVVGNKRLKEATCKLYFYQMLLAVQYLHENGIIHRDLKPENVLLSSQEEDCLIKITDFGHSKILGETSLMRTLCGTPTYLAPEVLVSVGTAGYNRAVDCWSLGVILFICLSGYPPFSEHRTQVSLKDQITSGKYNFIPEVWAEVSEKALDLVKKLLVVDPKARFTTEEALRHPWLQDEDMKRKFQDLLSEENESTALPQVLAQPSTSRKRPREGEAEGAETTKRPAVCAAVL

T1 sequence (P08069 31-736 limits assumed): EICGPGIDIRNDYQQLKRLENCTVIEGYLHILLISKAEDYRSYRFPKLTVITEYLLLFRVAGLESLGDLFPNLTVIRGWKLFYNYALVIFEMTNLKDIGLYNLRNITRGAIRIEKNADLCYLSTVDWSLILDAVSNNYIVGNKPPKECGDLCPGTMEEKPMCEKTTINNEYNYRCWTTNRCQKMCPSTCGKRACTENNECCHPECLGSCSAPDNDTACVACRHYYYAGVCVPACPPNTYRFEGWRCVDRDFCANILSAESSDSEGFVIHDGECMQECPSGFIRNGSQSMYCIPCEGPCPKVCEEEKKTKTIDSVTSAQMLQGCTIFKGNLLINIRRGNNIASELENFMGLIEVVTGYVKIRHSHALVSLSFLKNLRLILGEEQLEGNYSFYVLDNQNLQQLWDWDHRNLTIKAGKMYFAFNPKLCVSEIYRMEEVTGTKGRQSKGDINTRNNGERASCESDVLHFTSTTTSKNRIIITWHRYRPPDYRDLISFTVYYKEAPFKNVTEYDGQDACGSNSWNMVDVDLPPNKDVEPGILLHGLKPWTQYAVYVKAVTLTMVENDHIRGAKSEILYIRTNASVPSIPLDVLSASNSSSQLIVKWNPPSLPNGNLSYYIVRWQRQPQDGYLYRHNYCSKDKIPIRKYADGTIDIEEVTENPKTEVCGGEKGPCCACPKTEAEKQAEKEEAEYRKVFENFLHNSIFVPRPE
T1 sequence (P08069 741-1367 limits assumed): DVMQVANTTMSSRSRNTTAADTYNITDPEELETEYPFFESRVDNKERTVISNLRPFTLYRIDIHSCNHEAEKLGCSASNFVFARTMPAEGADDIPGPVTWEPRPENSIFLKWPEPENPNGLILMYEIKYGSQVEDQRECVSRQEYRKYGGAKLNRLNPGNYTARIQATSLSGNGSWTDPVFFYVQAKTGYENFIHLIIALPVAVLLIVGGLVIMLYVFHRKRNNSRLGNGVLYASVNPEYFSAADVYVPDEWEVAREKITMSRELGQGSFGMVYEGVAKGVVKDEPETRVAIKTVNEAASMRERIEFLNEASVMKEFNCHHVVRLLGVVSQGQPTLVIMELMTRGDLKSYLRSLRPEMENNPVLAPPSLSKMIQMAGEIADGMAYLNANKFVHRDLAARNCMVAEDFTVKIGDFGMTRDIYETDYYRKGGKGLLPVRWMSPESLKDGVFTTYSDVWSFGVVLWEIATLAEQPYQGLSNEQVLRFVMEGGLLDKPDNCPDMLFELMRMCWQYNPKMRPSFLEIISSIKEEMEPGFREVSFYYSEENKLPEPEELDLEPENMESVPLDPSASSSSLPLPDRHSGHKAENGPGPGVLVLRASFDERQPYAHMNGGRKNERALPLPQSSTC
Calcium/calmodulin-dependent protein kinase kinase 2 (Homo sapiens), sequence (Q96RR4 2-588 limits assumed): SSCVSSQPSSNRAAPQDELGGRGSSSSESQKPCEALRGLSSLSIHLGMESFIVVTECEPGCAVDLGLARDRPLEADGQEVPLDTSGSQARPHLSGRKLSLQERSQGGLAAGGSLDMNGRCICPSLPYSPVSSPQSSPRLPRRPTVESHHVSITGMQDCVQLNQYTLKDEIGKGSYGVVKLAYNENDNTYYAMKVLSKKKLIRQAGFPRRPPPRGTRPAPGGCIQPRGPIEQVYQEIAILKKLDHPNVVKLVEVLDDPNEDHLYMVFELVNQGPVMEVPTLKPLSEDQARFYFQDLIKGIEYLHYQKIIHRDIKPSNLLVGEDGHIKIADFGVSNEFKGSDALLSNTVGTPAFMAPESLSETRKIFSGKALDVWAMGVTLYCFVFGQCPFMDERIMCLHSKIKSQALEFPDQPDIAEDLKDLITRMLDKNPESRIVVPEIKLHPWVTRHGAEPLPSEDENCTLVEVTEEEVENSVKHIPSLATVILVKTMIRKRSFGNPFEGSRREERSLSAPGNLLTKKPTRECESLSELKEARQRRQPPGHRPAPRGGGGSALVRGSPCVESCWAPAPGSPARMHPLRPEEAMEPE

Question: Which inhibition [1] does the source give for `C=CC(=O)Nc1cc(Nc2ncc(Cl)c(-c3cnn4ccccc34)n2)c(OC)cc1N1CCN(C)CC1` here?
Answer: 97%

Question: What about the inhibition [2] of the same molecule?
Answer: 92%

Question: And the IC50 [3]?
Answer: 2 nM

Question: Which inhibition in vivo at 10 mg/kg [4] does the source give for `C=CC(=O)Nc1cc(Nc2ncc(Cl)c(-c3cnn4ccccc34)n2)c(OC)cc1N(C)CCN(C)C` here?
Answer: 10%

Question: And the inhibition in vivo at 10 mg/kg/day [5]?
Answer: 243%

Question: And the inhibition in vivo at 10 mg/kg [6]?
Answer: 60%

Question: What about the inhibition in vivo at 10 mg/kg [7] of the same molecule?
Answer: 83%

Question: And the IC50 [8]?
Answer: 9 nM

Question: And the inhibition in vivo at 10 mg/kg [9]?
Answer: 89%

Question: What about the inhibition in vivo at 10 mg/kg [10] of the same molecule?
Answer: 80%

Question: And the inhibition [1]?
Answer: 97%

Question: And the inhibition in vivo at 10 mg/kg [11]?
Answer: 38%

Question: What about the inhibition in vivo at 10 mg/kg [12] of the same molecule?
Answer: 94%

Question: And the inhibition in vivo at 10 mg/kg/day [13]?
Answer: 130%

Question: And the inhibition in vivo at 10 mg/kg [14]?
Answer: 30%

Question: And the inhibition in vivo at 10 mg/kg/day [15]?
Answer: 35%

Question: What about the inhibition [16] of the same molecule?
Answer: 99%

Question: And the inhibition in vivo at 10 mg/kg [17]?
Answer: 100%

Question: And the IC50 [3]?
Answer: 6 nM

Question: And the inhibition in vivo at 10 mg/kg [18]?
Answer: 93%

Question: Which results are given for `C=CC(=O)Nc1cc(Nc2nccc(-c3c[nH]c4ccccc34)n2)c(OC)cc1N1CCN(C)CC1`?
Answer: hepatocyte CLint [19]: 53 µL/min/1e6 cells; IC50 [20]: 1200 nM; IC50 [21]: 63 nM; IC50 [22]: 15 nM; solubility thermodynamic [23]: 828 µM (≈ 400 µg/mL); IC50 [3]: 813 nM

Question: With `C=CC(=O)Nc1cc(Nc2ncc(C)c(-c3cn(C)c4ccccc34)n2)c(OC)cc1N(C)CCN(C)C` as the molecule, how does the IC50 [3] read?
Answer: 196 nM

Question: With `C=CC(=O)Nc1cc(Nc2ncc(C#N)c(-c3cn(C)c4ccccc34)n2)c(OC)cc1N(C)CCN(C)C` as the molecule, how does the logD [24] read?
Answer: 2.7

Question: And the Cmax [25]?
Answer: 110 nM

Question: And the clearance [26]?
Answer: 62 mL/min/kg

Question: What about the hepatocyte CLint [27] of the same molecule?
Answer: 10 µL/min/1e6 cells

Question: What about the bioavailability [28] of the same molecule?
Answer: 6%

Question: What about the IC50 [29] of the same molecule?
Answer: 4300 nM

Question: What about the fraction unbound [30] of the same molecule?
Answer: 0.089

Question: What about the GI50 [31] of the same molecule?
Answer: 101 nM

Question: What about the fraction unbound [32] of the same molecule?
Answer: 0.11

Question: What about the GI50 [33] of the same molecule?
Answer: 2 nM

Question: What about the GI50 [34] of the same molecule?
Answer: 0.8 nM

Question: And the solubility thermodynamic [23]?
Answer: 57 µM (≈ 29.9 µg/mL)

Question: And the IC50 [3]?
Answer: 38 nM

Question: Which results are given for `COc1ccc(NC(=O)/C=C/CN(C)C)cc1Nc1ncc(Cl)c(-c2cnn3ccccc23)n1`?
Answer: inhibition [35]: 90%; inhibition [1]: 98%; inhibition [16]: 97%; inhibition [2]: 94%; IC50 [3]: 4 nM

Question: For `C=CC(=O)Nc1cc(Nc2ncc(Cl)c(-c3c[nH]c4ccccc34)n2)c(OC)cc1N(C)CCN(C)C`, which logD [24] is on record?
Answer: 3.3

Question: What about the fraction unbound [30] of the same molecule?
Answer: 0.036

Question: What about the GI50 [31] of the same molecule?
Answer: 144 nM

Question: What about the fraction unbound [32] of the same molecule?
Answer: 0.075

Question: And the GI50 [33]?
Answer: 2 nM

Question: And the GI50 [34]?
Answer: 2 nM

Question: And the solubility thermodynamic [23]?
Answer: 75 µM (≈ 39 µg/mL)

Question: What about the IC50 [3] of the same molecule?
Answer: 7 nM

Question: For `C=CC(=O)Nc1cc(Nc2ncc(Cl)c(-c3cnn4ccccc34)n2)c(OC)cc1N1CCN(C(=O)N2CCNCC2)CC1`, which logD [24] is on record?
Answer: 2
